From US11883539B2, “Pharmaceutical compositions of berberine with EPA and DHA, and methods thereof” (SHENZHEN HIGHTIDE BIOPHARMACEUTICAL, LTD., priority 2015, dated 2024)
Where two headings read alike, the source gives them in different places.

Test: Single-dose pharmacokinetics study in rats (BBR•HCl, EPA-EE, BBR + EPA-EE; 3 rats per group)
Format: in vivo
Settings: male, Sprague-Dawley, rat, SD rats, single oral administration, plasma
Description: In the single-dose pharmacokinetics study in rats, after 7-day acclimation, healthy male Sprague-Dawley (SD) rats with the body weight of 210-250 g were randomized into four groups as follows (3 rats per group).
The rats in each group were orally treated with the suspensions of the corresponding testing articles indicated above in 0.5% gum tragacanth respectively. Blood samples of the test animals were collected pre-dose and at the time points of 15 min, 30 min, 1 h, 1.5 h, 2 h, 4 h, 8 h, 24 h post-dose. The collected blood samples (approximately 400 μL) were placed into tubes containing heparin sodium and centrifuged at 8,000 rpm for 6 minutes at 4° C. to separate plasma. The obtained plasma from each sample was stored at −80° C. until being analyzed.
Plasma concentrations of BBR and EPA were determined using tandem mass spectrometry (LC-MS/MS) analysis. A non-compartmental module of WinNonlin® Professional 5.2 (Pharsight; St. Louis MO), was used to calculate PK parameters. The abbreviation AUC(0-t) represents area under the curve from the time of dosing to the time of the last observation, the AUC(0-∞) represents area under the curve from the time of dosing to infinity, and the Cmax represents maximum concentration detected.

AUC(0-t) (BBR•HCl 51.13 mg/Kg (alone or + EPA-EE 45.48 mg/Kg), read-out: BBR AUC(0-t)) [ng·h/mL] | AUC(0-inf) (BBR•HCl 51.13 mg/Kg (alone or + EPA-EE 45.48 mg/Kg), read-out: BBR AUC(0-∞)) [ng·h/mL] | Cmax (BBR•HCl 51.13 mg/Kg (alone or + EPA-EE 45.48 mg/Kg), read-out: BBR Cmax) [ng/mL] | AUC(0-t) (EPA-EE 45.48 mg/Kg (alone or + BBR•HCl 51.13 mg/Kg), read-out: EPA (Free acid) AUC(0-t)) [ng·h/mL] | AUC(0-inf) (EPA-EE 45.48 mg/Kg (alone or + BBR•HCl 51.13 mg/Kg), read-out: EPA (Free acid) AUC(0-∞)) [ng·h/mL] | Cmax (EPA-EE 45.48 mg/Kg (alone or + BBR•HCl 51.13 mg/Kg), read-out: EPA (Free acid) Cmax) [ng/mL] | SMILES
7.46 | 8.84 | 0.95 | – | – | – | COc1ccc2cc3[n+](cc2c1OC)CCc1cc2c(cc1-3)OCO2 [BBR, 5,6-dihydro-9,10-dimethoxybenzo[g]-1,3-benzodioxolo[5,6-a]quinolizinium]
– | – | – | 3750 | 6600 | 629 | CCC=CCC=CCC=CCC=CCC=CCCCC(=O)O (stereo in doubt) [EPA, (5Z,8Z,11Z,14Z,17Z)-5,8,11,14,17-icosapentaenoic acid]
